Structures can show the parent of a compound that is named as a salt. Where two headings read alike, the source gives them in different places.
Target: T1, β-catenin/BCL9 PPI (Homo sapiens, UniProt P35222)
T1 construct: Wild-type full-length β-catenin were cloned into a pET-28b vector carrying a C-terminal 6×histidine; made in house; host or cells: Escherichia coli BL21 DE3 (β-catenin); BCL9 peptide chemically synthesized
T1 sequence (P35222 1-781): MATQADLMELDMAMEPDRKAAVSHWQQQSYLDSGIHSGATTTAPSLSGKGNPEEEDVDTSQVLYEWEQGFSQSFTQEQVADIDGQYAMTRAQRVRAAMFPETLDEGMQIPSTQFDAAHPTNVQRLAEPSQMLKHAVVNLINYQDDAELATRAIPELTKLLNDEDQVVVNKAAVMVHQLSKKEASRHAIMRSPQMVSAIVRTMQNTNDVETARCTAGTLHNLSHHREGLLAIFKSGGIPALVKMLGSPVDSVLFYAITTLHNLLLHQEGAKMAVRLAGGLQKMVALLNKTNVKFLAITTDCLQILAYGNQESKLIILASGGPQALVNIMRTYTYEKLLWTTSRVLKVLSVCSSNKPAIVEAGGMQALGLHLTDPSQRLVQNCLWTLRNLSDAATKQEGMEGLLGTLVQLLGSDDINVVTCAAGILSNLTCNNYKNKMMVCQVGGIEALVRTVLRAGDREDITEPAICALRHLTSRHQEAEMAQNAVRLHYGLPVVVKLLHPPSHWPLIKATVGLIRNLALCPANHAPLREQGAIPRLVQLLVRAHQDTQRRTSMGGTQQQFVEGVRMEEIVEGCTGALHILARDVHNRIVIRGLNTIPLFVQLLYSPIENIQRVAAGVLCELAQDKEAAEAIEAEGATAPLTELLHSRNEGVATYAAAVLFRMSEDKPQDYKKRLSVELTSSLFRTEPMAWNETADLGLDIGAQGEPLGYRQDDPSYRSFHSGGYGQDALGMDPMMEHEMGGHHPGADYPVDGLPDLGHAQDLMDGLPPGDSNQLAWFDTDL
Test: AlphaScreen competitive inhibition assay of the β-catenin/BCL9 PPI
Type: binding
Details: Example 1 compounds, mean ± SD, triplicate, Ki derived from IC50 (Nikolovska-Coleska method)
Description: AlphaScreen competitive inhibition assays. For the competitive inhibition assays of the β-catenin/BCL9 PPI, the negative control (equivalent to 0% inhibition) refers to 5.0 nM of biotinylated BCL9, 40 nM of His6-tagged β-catenin, and 10 μg/mL of donor and acceptor beads in a final volume of 25 μL assay buffer, but no tested inhibitor present. The positive control (equivalent to 100% inhibition) refers to 5.0 nM of biotinylated BCL9 and 10 μg/mL of donor and acceptor beads in a final volume of 25 μL assay buffer.
For the β-catenin/BCL9 assay, 5 nM of biotinylated BCL9 and 40 nM of His6-tagged β-catenin were incubated in assay buffer at 4° C. for 30 min. Different concentrations of the tested inhibitor were added and incubated in 20 μL assay buffer at 4° C. for another 1 h. All of the above assay plates were covered and gently mixed on an orbital shaker. The donor and acceptor beads were then added to the plates to a final concentration of 10 μg/mL in 25 μL assay buffer. The mixture was incubated for 1 h at 4° C. before detection. The IC50 value was determined by nonlinear least-square analysis of GraphPad Prism 5.0. The Ki values were derived from the IC50 values using a method reported by Nikolovska-Coleska et al (Nikolovska-Coleska, Z.; Wang, R.; Fang, X.; Pan, H.; Tomita, Y.; Li, P.; Roller, P. P.; Krajewski, K.; Saito, N. G.; Stuckey, J. A.; Wang, S. Development and optimization of a binding assay for the XIAP BIR3 domain using fluorescence polarization. Anal. Biochem. 2004, 332, 261-273). The assays were conducted under the conditions required by Nikolovska-Coleska et al.'s equation for determining the Ki values. All of the experiments were performed in triplicate. The results were expressed as mean±standard deviation.

[1] = experiment 3, read-out: Ki (μM ± SD) experiment 3
[2] = experiment 4, read-out: Ki (μM ± SD) experiment 4
[3] = experiment 1, read-out: Ki (μM ± SD) experiment 1
[4] = experiment 2, read-out: Ki (μM ± SD) experiment 2

| SMILES | Ki [1] [µM] | Ki [2] [µM] | Ki [3] [µM] | Ki [4] [µM] |
| --- | --- | --- | --- | --- |
| CC(=O)Nc1cc(F)cc(C(=O)N2CCN(C(=O)c3ccc(O[C@H]4CCNC4)c(C4CCCCC4)c3)C(C(=O)Nc3ccccc3)C2)c1 (stereo partly drawn) [Compound 27, 4-(3-Acetamido-5-fluorobenzoyl)-1-(3-cyclohexyl-4-(((S)-pyrrolidin-3-yl)oxy)benzoyl)-N-phenylpiperazine-2-carboxamide trifluoroacetate] | 130 ± 22 | 580 ± 83 | – | – |
| CC(=O)Nc1cc(F)cc(C(=O)N2CCN(C(=O)c3ccc(O[C@H]4CCNC4)c(C4CCCCC4)c3)C(C(=O)NCc3ccccc3)C2)c1 (stereo partly drawn) [Compound 28, 4-(3-Acetamido-5-fluorobenzoyl)-N-benzyl-1-(3-cyclohexyl-4-(((S)-pyrrolidin-3-yl)oxy)benzoyl) piperazine-2-carboxamide trifluoroacetate] | 660 ± 110 | 600 ± 89 | – | – |
| CC(=O)Nc1cc(F)cc(C(=O)N2CCN(C(=O)c3ccc(O[C@H]4CCNC4)c(C4CCCCC4)c3)C(C(=O)N(C)Cc3ccccc3)C2)c1 (stereo partly drawn) [Compound 29, 4-(3-Acetamido-5-fluorobenzoyl)-N-benzyl-1-(3-cyclohexyl-4-(((S)-pyrrolidin-3-yl)oxy)benzoyl)-N-methylpiperazine-2-carboxamide trifluoroacetate] | 560 ± 120 | 740 ± 150 | – | – |
| NCc1cn(-c2cc(F)cc(C(=O)N3CCN(C(=O)c4ccc(O[C@H]5CCNC5)c(C5CCCCC5)c4)CC3)c2)nn1 [Compound 30, (S)-(4-(3-(4-(aminomethyl)-1H-1,2,3-triazol-1-yl)-5-fluorobenzoyl)piperazin-1-yl) (3-cyclohexyl-4-(pyrrolidin-3-yloxy)phenyl) methanone ditrifluoroacetate] | – | – | 110 ± 15 | 560 ± 71 |
| NCc1cn(-c2cc(F)cc(C(=O)N3CCN(C(=O)c4ccc(O[C@H]5CCNC5)c(C5CCC(C(F)(F)F)CC5)c4)CC3)c2)nn1 (stereo partly drawn) [Compound 31, (S)-(4-(3-(4-(aminomethyl)-1H-1,2,3-triazol-1-yl)-5-fluorobenzoyl)piperazin-1-yl) (4-(pyrrolidin-3-yloxy)-3-(4-(trifluoromethyl)cyclohexyl)phenyl) methanone ditrifluoroacetate] | – | – | > 350 | 610 ± 91 |
| CNCc1cn(-c2cc(F)cc(C(=O)N3CCN(C(=O)c4ccc(O[C@H]5CCNC5)c(C5CCCCC5)c4)CC3)c2)nn1 [Compound 32, (S)-(4-(3-Cyclohexyl-4-(pyrrolidin-3-yloxy)benzoyl)piperazin-1-yl) (3-fluoro-5-(4-((methylamino)methyl)-1H-1,2,3-triazol-1-yl)phenyl) methanone dihydrochloride] | > 1000 | – | – | – |

— patent US12600710B2, “Beta-catenin and b-cell lymphoma 9 (BCL9) inhibitors” (H. LEE MOFFITT CANCER CENTER AND RESEARCH INSTITUTE, INC., priority 2018, dated 2026)
